According to publication PMC6697720, “Saturation of acyl chains converts cardiolipin from an antagonist to an activator of Toll-like receptor-4” (Cellular and Molecular Life Sciences: CMLS, 2019):

Molecular target: T1, murine TLR4, MD2, and CD14 (Mus musculus, UniProt Q9JHF9+Q9QUK6)
T1 construct: expressed in transfected cells; host or cells: HEK293 (ATCC CRL1573), transient transfection with jetPEI
T1 sequence (Q9QUK6 26-835): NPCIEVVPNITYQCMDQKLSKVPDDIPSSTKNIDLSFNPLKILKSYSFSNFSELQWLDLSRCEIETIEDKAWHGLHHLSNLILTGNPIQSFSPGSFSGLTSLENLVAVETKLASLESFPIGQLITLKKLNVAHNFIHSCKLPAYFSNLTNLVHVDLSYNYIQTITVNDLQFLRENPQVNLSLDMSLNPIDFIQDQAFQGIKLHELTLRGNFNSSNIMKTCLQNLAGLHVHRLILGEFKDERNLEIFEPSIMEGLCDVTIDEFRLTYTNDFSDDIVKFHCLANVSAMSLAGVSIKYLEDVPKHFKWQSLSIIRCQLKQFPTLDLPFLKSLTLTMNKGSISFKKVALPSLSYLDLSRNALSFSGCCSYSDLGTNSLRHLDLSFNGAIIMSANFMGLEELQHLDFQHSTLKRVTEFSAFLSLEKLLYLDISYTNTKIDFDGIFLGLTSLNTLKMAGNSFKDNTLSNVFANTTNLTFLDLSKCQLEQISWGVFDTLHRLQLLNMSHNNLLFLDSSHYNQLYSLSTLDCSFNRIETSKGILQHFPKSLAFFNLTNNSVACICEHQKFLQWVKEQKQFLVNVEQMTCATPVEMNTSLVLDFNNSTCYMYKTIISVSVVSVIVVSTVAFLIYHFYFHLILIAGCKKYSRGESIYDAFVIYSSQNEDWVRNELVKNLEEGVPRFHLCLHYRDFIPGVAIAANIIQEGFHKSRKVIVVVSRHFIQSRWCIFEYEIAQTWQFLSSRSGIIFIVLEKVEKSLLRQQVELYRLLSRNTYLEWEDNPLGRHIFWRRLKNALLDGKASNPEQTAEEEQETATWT
T1 sequence (Q9JHF9 19-160): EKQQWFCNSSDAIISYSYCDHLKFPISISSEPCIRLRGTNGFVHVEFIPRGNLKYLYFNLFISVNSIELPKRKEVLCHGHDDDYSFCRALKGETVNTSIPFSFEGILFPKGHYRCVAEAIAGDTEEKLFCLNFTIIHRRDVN
Assay: NF-κB luciferase reporter activation by CLs in HEK293 cells transfected with murine TLR4, MD2 and CD14
Assay type: cell-based
Conditions: 6 h incubation
Procedure: Cells were seeded at 4 × 10^4 cells/mL in 96-well plates (200 μL/well) and transiently transfected 4 days later. Expression vectors containing an NF-κB transcription reporter vector-encoding firefly luciferase (10 ng/well pNF-κB-luc from Clontech), and a constitutively active reporter vector-encoding Renilla luciferase (5 ng/well phRG-TK; Promega), together with empty vector (pcDNA3.1 from Invitrogen Cat. N. V79020) and cDNA encoding human membrane CD14 (3 ng/well) and human or murine TLR4 and MD2 (3 ng/well) were mixed with jetPEI (Polyplus transfection Cat.N. 101-10N) and incubated with cells according to the manufacturer’s instructions.
After treatment supernatants were discarded, cells were washed with PBS and lysed with passive lysis buffer (Promega Cat.N. E1941). Luciferase and Renilla activity on cell lysates were quantified on a BioTek Synergy HT microplate reader using home-made luciferase reagent (20 mM Tricine, 2.67 mM MgSO4·7H2O, 0.265 mM (MgCO3)4Mg(OH)2·5H2O, 0.1 mM EDTA, 33.3 mM DTT, 530 μM ATP, 270 μM Acetyl Coenzyme A (Lithium salt), 470 μM luciferin (Biosynth), pH 7.8, diluted two times in water before use), or coelenterazine (Biosynth) dissolved in ethanol at 1 mg/mL and diluted 500 times in PBS before use as previously described. […]

activation of murine TLR4 (NF-κB): agonist
Compound: CCCCCCCCCCCCCC(=O)OC[C@H](COP(=O)(O)OCC(O)COP(=O)(O)OC[C@@H](COC(=O)CCCCCCCCCCCCC)OC(=O)CCCCCCCCCCCCC)OC(=O)CCCCCCCCCCCCC (stereo partly shown) [C14:0 CL]
